The source of these data is patent US20070048355A1, “Non-irritating solvent-borne polymeric coatings for application to the skin” (priority 2005, published 2007).

The data set deals with freshly abraided skin on a finger knuckle. Put plainly: standard sting test on abraded finger knuckle skin. The data set is classed as in vivo, human. The note with it: for stinging of aliphatic hydrocarbon diluent solvents (in words): neat alkane on abraded skin. From the text:
The preparations described above were applied to skin that had been carefully abraided shortly before testing to determine whether the stinging and discomfort caused by collodion application could be suppressed by one or more of these agents. The procedure used was to manually scour a finger knuckle using 100 grit garnet sandpaper just to the point of slight bleeding, and then allowing the skin to rest a minute or so until any discomfort, i.e., sensation of irritation, pain or heat, had disappeared prior to challenging the abrasion with a potential chemical irritant. The resultant stinging sensation was compared to that produced with the unmodified commercial New Skin™ collodion product (the “control”). Sting (also termed and described as “burning sensation”) was rated on a five level scale as follows: (−) no sting, (+/−) barely detectable sting, (+) slight sting, (++) moderate sting, (+++) strong sting. […] This method of testing and scoring the level or magnitude of the stinging sensation is referred to herein as the “sting test” or “standard sting test.”
Using the “standard sting test” described above, and similarly abraded skin on a finger knuckle, individual collodion ingredients were tested neat (undiluted). Accordingly, a droplet or two of the mixture or the chemical ingredient was placed on freshly abraided skin.
Several new chemicals and solvents of potential interest were tested, and others that were formerly tested (all in their neat state) were re-tested using the standard sting test procedure and accompanying scoring system described above. Applicant's strategy behind this testing was to find a true solvent or alternatively, a combination of true solvent and either co-solvent or diluent, that would have sufficient volatility to allow rapid drying of a collodion coating without causing stinging when applied to the skin.

Setting [1] is: additional testing and re-testing of chemicals and solvents in their neat state, standard sting test.
Where [2] appears, read: individual collodion ingredients tested neat (undiluted), a droplet or two on freshly abraided skin.

Take `CC(CO)CO` [Methyl propanediol]: under setting [1], the “LEVEL OF STING” value was “+”.
As to “Isohexane (e.g., 2-methyl pentane and other isomers)”, the “LEVEL OF STING” value under setting [1] is “−”.
As to Castor Oil, the “LEVEL OF STING” value (in vivo) is listed as “−”.
Turning to `CCCCCCCC` [n-Octane], the “stinging of aliphatic hydrocarbon diluent solvents (in words)” value (“stinging” below) is “none of the aliphatic hydrocarbon diluent solvents that were tested caused any stinging”. Moreover, the “LEVEL OF STING” value under setting [1] was “−”.
As for `CO` [Methyl alcohol], under setting [1], the “LEVEL OF STING” value is “+++”.
Turning to `CCCCC` [n-pentane], the “stinging” value is given as “none of the aliphatic hydrocarbon diluent solvents that were tested caused any stinging”.
As to `CC(C)O` [Isopropyl Alcohol], the “LEVEL OF STING” value is listed as “++” under setting [1] and “++” under setting [2].
`CCCC(C)=O` [Methyl propyl ketone]: under setting [1], the “LEVEL OF STING” value is “++”.
Turning to `CCCCOC(C)=O` [n-Butyl Acetate], the “LEVEL OF STING” value by setting is: under setting [1], “+/−”; under setting [2], “+/−”.
In the case of `CC(C)=O` [Acetone], under setting [1], the “LEVEL OF STING” value was “+++”.
Turning to `CCCCCCC` [n-Heptane], the “stinging” value is reported as “none of the aliphatic hydrocarbon diluent solvents that were tested caused any stinging”. In addition, under setting [1], the “LEVEL OF STING” value is “−”.
In the case of `CCCCCC` [n-Hexane], the “stinging” value is reported as “none of the aliphatic hydrocarbon diluent solvents that were tested caused any stinging”. In addition, under setting [1], the “LEVEL OF STING” value is “−”.
As for `COC(C)=O` [Methyl acetate], the “LEVEL OF STING” value under setting [1] is reported as “+++”.
The same measure, in the same setting: the value for `CCCOC(C)=O` [n-Propyl acetate] was “+”.
As for `CCC(C)=O` [Methyl ethyl ketone], under setting [1], the “LEVEL OF STING” value was “+++”.
In the case of `CC(=O)OC(C)(C)C` [tert-Butyl acetate], the “LEVEL OF STING” value under setting [1] is reported as “+/−”.
Turning to `CCO` [Ethyl Alcohol], the “LEVEL OF STING” value under setting [1] is “+++” and the “LEVEL OF STING” value under setting [2] was “+++”.
Take `CCCCCOC(C)=O` [Amyl Acetate (mixed isomers), Amyl Acetate]: the “LEVEL OF STING” value is, setting by setting: under setting [1], “+/−”; under setting [2], “+/−”.
Turning to `CC(=O)OC(C)C` [Isopropyl acetate], the “LEVEL OF STING” value under setting [1] is on record as “+”.
Take `CCOC(C)=O` [Ethyl Acetate]: the “LEVEL OF STING” value (in vivo) is recorded as “+++”.
As for `CCCCCO` [n-amyl alcohol], under setting [1], the “LEVEL OF STING” value is given as “+”.
As to `CC(C)CO` [isobutyl alcohol], the “LEVEL OF STING” value under setting [1] is “+”.
